Measured values published in US10570099B2, “Salts of an epidermal growth factor receptor kinase inhibitor” (Celgene CAR LLC, priority 2012, dated 2020).

Assays:
[1] = Dog PK Study 1 (cross-over, fasted); format: in vivo, beagle dogs; details: fasted dogs, oral, 24.5-28.5 mg/kg QD
Description: Compound 1 free base and compound 2, as the Form I monohydrobromide (HBr) salt, were evaluated in a cross-over dog PK study. Compound 1 free base capsule consisted of compound 1 free base in Vitamin E TPGS and PEG 400 filled into a capsule. The Form I hydrobromide salt capsule consisted of Form I HBr alone filled into a capsule.
Compound 1 free base capsule and Form I HBr capsule were dosed orally at 28.5 and 24.5 mg/kg (as active) QD, respectively, to three fasted male non-naïve beagle dogs (body weight range: 10.1-10.8 kg) with a 5-day washout period. Approximately 5 mL of tap water was orally administered to encourage swallowing and ensure delivery of capsules into the stomach. Plasma samples were collected at pre-dose and 0.5, 1, 2, 4, 6, 8, 12 and 24 hours post dose. The plasma concentrations of compound 1 were determined by a liquid chromatography-tandem mass spectrometry (LC/MS/MS) method.

[2] = Administration to healthy volunteers (single dose PK study); format: in vivo, healthy male subjects; details: 50 mg dose, Regimen B
Source text: The primary objective of the study is to compare the compound 1 pharmacokinetic (PK) profiles of single doses of Form I monohydrobromide formulations with that of the compound 1 free base in healthy adult males.
This is a single centre non-randomised, open-label, single dose study in healthy male subjects. Subjects will be screened for eligibility to participate in the study up to 28 days before dosing. The subjects will be admitted to the clinical unit at approximately 09:00 in the morning on the day prior to dosing (Day-1) and will remain on site until 24 h after each dose. Each subject will attend a follow-up visit 4 to 6 days after the final dose.
One group of 12 subjects will be dosed in an effort to obtain the data described above. Each subject will receive the following formulations in a crossover investigation. Dosing will be separated by at least 7 days. • Regimen A: 150 mg compound 1 (free base) capsule • Regimen B: 50 mg as active compound 2 (Form I HBr) tablet formulation • Regimen C: ≤150 mg as active compound 2 (Form I HBr) tablet formulation
All formulations will be dosed in the morning, following an overnight fast. Subjects will be allowed water up to 2 h before the scheduled dosing time and will be provided with 240 mL of water at 2 h post-dose. […]
Plasma concentration data will be tabulated and plotted for each subject for whom concentrations are quantifiable.

[3] = Slurry in pH 6.2 aqueous medium (conversion to unknown solid form); format: physicochemical; details: slurry in aqueous pH 6.2 medium, ambient, XRPD
Description: In attempts to characterize this form, as well as establish the rate of conversion to this form while slurrying the material, the following experiments were carried out. Initially, approximately 100 mg of the hydrobromide (1 equiv.) material was slurried in a pH 6.2 aqueous solution at ambient and XRPD analysis was carried out at time points 5 min., 1 hr, 2 hrs, 4 hrs and 8 hrs. Further analysis was then also carried out on the converted material.

[4] = Salt disproportionation study (slurry in deionized water); format: physicochemical; details: deionized water slurry
Description: The pH of the supernatant was also monitored.
The hydrobromide salt was slurried in deionised water at ambient temperature (ca. 22° C.). […] The pH of the supernatant was also monitored.

[5] = Intrinsic dissolution of compressed discs; format: physicochemical; details: early time points
Description: A Sotax AT7 dissolution bath (USP 2, EP 2 apparatus) was used for the dissolution study in which paddles were used to stir the media. All tests were carried out at 37° C. and a paddle speed of 100 rpm.
(§1) Approximately 100-120 mg of each form was compressed into discs by placing the material into a die (diameter: 13 mm) and compressing the die under 5 tons of pressure in a hydraulic press for ca. 2 minutes. A Sotax AT7 (conformed to EP2 and USP2) dissolution instrument was used containing paddles to stir the media at 100 rpm. Dissolution media of pH 3 (1% SDS) and pH 4.5 (1% SDS) were prepared using citrate/phosphate buffer. All materials were tested in 750 ml of the buffer medium. Discs were added at time=0 seconds and allowed to sink to the bottom of the dissolution vessel before stirring began. ca. 1 ml aliquots of media were extracted from the dissolution vessels at times 1, 5, 10, 15, 30, 60, 120, 240 minutes and 24 hours, and tested for dissolved salt concentration by HPLC-UV. The dissolution tests were carried out in duplicate. For both dissolution media, the peak areas for the initial time points (up to 15 minutes), fell below the limit of quantification, however, when plotting Dissolution rate vs. time, the steepest part of the curve occurs during these early time points.
as §1, with “material” for “each form”, “API” for “dissolved salt”

[6] = 1 week stability study (XRPD and HPLC); format: physicochemical; details: 1 week, listed as hydrobromide salt
Description: (§2) Resulting solids were analysed by XRPD and HPLC to establish if any changes had occurred.
as §2
The resulting solids were analysed by XRPD and HPLC to establish if any changes had occurred.

[7] = 40° C./75% RH, closed (crimped) vial

SMILES: Br.C=CC(=O)Nc1cccc(Nc2nc(Nc3ccc(N4CCN(C(C)=O)CC4)cc3OC)ncc2C(F)(F)F)c1 [Form I hydrobromide salt]
- compound 1 exposure (AUC and Cmax) compared to the free base form [1]: significantly higher
- patient-to-patient variability [2]: less patient-to-patient variability
- time of conversion to the unknown solid form [3]: 2 to 4 h
- pH of the supernatant ([4]; 1 hr): pH 1
- pH of the supernatant ([4]; 24 hrs): pH 1
- pH of the supernatant ([4]; 48 hrs): pH 1
- intrinsic dissolution value ([5]; pH 3.0 (1% SDS), tablet 1): approximately 0.35 mg/cm^2/min
- intrinsic dissolution value ([5]; pH 3.0 (1% SDS), tablet 2): approximately 0.35 mg/cm^2/min
- intrinsic dissolution value ([5]; pH 4.5 (1% SDS), tablet 1): approximately 0.27 mg/cm^2/min
- intrinsic dissolution value ([5]; pH 4.5 (1% SDS), tablet 2): ~0.28 mg/cm^2/min
- HPLC purity after storage [6, 7]: 97.2%
- XRPD after storage [6, 7]: No polymorphic form changes observed
- HPLC purity after storage ([6]; 40° C./75% RH, open vial): 97.2%
- XRPD after storage ([6]; 40° C./75% RH, open vial): No polymorphic form changes observed
- HPLC purity after storage ([6]; 80° C., open vial): 97.1%
- XRPD after storage ([6]; 80° C., open vial): No polymorphic form changes observed
